The text below walks through data of ChEMBL document CHEMBL1144330, “Novel pyrazinone mono-amides as potent and reversible caspase-3 inhibitors” (Bioorg Med Chem Lett, 2005).

Some results are limits rather than exact numbers.

In test [1] the target is T1, Caspase-7 (Homo sapiens, UniProt P55210).
T1 sequence (P55210 whole entry): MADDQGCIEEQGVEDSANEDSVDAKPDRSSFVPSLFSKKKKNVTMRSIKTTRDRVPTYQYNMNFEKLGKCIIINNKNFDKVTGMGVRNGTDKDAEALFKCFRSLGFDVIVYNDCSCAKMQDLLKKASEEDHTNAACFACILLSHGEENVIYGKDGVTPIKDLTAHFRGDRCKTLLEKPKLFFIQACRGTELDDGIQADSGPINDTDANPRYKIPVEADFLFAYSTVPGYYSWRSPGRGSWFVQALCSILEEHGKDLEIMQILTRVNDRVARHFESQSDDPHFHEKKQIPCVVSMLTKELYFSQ
As to the kind of experiment: Inhibitory concentration against recombinant human caspase-7 […].

The target in test [2] is Caspase-8 (Homo sapiens, UniProt Q14790). Description: Inhibitory concentration against recombinant human caspase-8 […].
Caspase-8, sequence (Q14790 217-374 limits assumed): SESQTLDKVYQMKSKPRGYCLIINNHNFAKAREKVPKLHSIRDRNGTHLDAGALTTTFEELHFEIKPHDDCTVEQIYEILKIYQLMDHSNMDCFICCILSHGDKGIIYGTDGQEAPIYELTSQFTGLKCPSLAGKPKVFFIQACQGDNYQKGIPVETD
Caspase-8, sequence (Q14790 385-479 limits assumed): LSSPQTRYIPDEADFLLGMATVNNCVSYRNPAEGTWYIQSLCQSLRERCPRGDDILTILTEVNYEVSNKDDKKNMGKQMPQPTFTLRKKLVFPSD
Test [3] concerns the target T2, Caspase-1 (Homo sapiens, UniProt P29466).
T2 sequence (P29466 whole entry): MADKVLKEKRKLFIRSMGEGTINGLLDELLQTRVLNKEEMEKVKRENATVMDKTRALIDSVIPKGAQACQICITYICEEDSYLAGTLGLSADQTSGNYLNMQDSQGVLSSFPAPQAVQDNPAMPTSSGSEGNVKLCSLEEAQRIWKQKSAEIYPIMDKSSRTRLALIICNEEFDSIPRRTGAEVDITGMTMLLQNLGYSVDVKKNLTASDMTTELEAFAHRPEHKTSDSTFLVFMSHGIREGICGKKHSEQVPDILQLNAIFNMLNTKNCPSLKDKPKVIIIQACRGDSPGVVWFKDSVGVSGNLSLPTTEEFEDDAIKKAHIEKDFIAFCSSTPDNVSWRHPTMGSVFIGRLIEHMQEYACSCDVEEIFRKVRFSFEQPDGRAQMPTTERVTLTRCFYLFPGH
As to the kind of experiment: Inhibitory concentration against recombinant human caspase-1 in neuronal precursor (NT2) cells.

Test [4] deals with NT2. As to the kind of experiment: Inhibitory concentration against camptothecin induced apoptosis in neuronal precursor (NT2) whole cells. The test is classed as functional, cell-based. The following applies: Homo sapiens.
The target of test [5] is T3, Caspase-3 (Homo sapiens, UniProt P42574).
T3 sequence (P42574 whole entry): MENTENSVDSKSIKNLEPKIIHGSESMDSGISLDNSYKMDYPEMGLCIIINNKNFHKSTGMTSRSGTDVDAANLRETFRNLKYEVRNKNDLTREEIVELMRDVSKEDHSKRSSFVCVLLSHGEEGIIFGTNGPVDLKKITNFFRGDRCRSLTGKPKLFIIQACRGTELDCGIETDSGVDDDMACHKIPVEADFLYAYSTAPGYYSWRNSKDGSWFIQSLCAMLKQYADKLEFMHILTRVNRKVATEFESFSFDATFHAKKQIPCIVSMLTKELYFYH
Description: Inhibitory concentration against recombinant human caspase-3 in neuronal precursor (NT2) cells.

Take `CCC(C(=O)N[C@@H](CC(=O)O)C(=O)CSCc1ccccc1)n1ccnc(NCc2noc(C)n2)c1=O` (stereo not given in full): the IC50 in test [1] is more than 10 µM; in test [2] it was 7.56 µM; in test [3], 1.08 µM; in test [4] it was 8.06 µM; in test [5], 0.072 µM.

As for `CCCCCCCCN(C)CNCC(=O)[C@H](CC(=O)O)NC(=O)C(CC)n1ccnc(NCc2nonc2C)c1=O` (stereo not given in full), the IC50 in test [1] is 0.1 µM; in test [2] it was more than 10 µM; in test [3], 0.025 µM; in test [4] it was 0.15 µM; in test [5], 0.009 µM.

As for `CCC(C(=O)N[C@@H](CC(=O)O)C(=O)CSCc1ccccc1)n1ccnc(NCc2cncs2)c1=O` (stereo not given in full), the IC50 came out at 0.49 µM in test [1]; 6.59 µM in test [2]; 0.19 µM in test [3]; 3.42 µM in test [4]; 0.012 µM in test [5].

As for `CCC(C(=O)N[C@@H](CC(=O)O)C(=O)CSCc1ccccc1)n1ccnc(NCc2cc(C)no2)c1=O` (stereo not given in full), the IC50 turned out to be 2.54 µM in test [1]; 3.3 µM in test [2]; 0.23 µM in test [3]; 6.41 µM in test [4]; 0.051 µM in test [5].

With `CCC(C(=O)N[C@@H](CC(=O)O)C(=O)CSCc1ccccc1)n1ccnc(NCc2nccs2)c1=O` (stereo not given in full), the concentration for half-maximal inhibition (IC50) is 1.13 µM in test [1]; 1.75 µM in test [2]; 0.13 µM in test [3]; 3.08 µM in test [4]; 0.026 µM in test [5].

As for `CCC(C(=O)N[C@@H](CC(=O)O)C(=O)CSCc1ccccc1)n1ccnc(Nc2ccc3sc(C)nc3c2)c1=O` (stereo not given in full), the IC50 worked out at 2.42 µM in test [1]; 2.73 µM in test [2]; 0.22 µM in test [3]; 37.9 µM in test [4]; 0.088 µM in test [5].

For `CCC(C(=O)N[C@@H](CC(=O)O)C(=O)CSCc1ccccc1)n1ccnc(NCCn2cncn2)c1=O` (stereo not given in full), the IC50 in test [1] is 9.71 µM; in test [2] it was more than 10 µM; in test [3] it was 1.93 µM; in test [4], 5.74 µM; in test [5] it was 0.018 µM.

In the case of `CCC(C(=O)N[C@@H](CC(=O)O)C(=O)CSCc1ccccc1)n1ccnc(NCCCN2CCCC2=O)c1=O` (stereo not given in full), the IC50 in test [1] is more than 10 µM; in test [2], 9.92 µM; in test [3], 1.9 µM; in test [4], 50 µM; in test [5], 0.19 µM.

Turning to `CCC(C(=O)N[C@@H](CC(=O)O)C(=O)CSCc1ccccc1)n1ccnc(NCc2nnc(-c3ccccc3)o2)c1=O` (stereo not given in full), the IC50 is more than 10 µM in test [1]; 4.92 µM in test [2]; 0.98 µM in test [3]; 52.1 µM in test [4]; 0.31 µM in test [5].

Regarding `CCC(C(=O)N[C@@H](CC(=O)O)C(=O)CSCc1ccccc1)n1ccnc(NCCOC)c1=O` (stereo not given in full), the IC50 in test [1] was more than 10 µM; in test [2], more than 10 µM; in test [3], 1.11 µM; in test [4], 6.79 µM; in test [5], 0.14 µM.

For `CCC(C(=O)N[C@@H](CC(=O)O)C(=O)CSCc1ccccc1)n1ccnc(NCCCOC)c1=O` (stereo not given in full), the IC50 in test [1] is 9.73 µM; in test [2], 7.65 µM; in test [3], 0.92 µM; in test [4] it was more than 10 µM; in test [5] it was 0.071 µM.

For the compound `CCC(C(=O)N[C@@H](CC(=O)O)C(=O)CSCc1ccccc1)n1ccnc(NCCn2nc(C)cc2C)c1=O` (stereo not given in full), the IC50 in test [1] was more than 10 µM; in test [2], 1.66 µM; in test [3], 1.82 µM; in test [4], 9.48 µM; in test [5], 0.16 µM.

Take `CCC(C(=O)N[C@H](C=O)CC(=O)O)n1ccnc(NCc2nonc2C)c1=O` (stereo not given in full): the IC50 in test [1] turned out to be 1 µM; in test [2] it was 0.99 µM; in test [3], 0.15 µM; in test [4], 3.56 µM; in test [5] it was 0.078 µM.

Regarding `CCC(C(=O)N[C@@H](CC(=O)O)C(=O)CSCc1ccccc1)n1ccnc(NCc2nc(C)no2)c1=O` (stereo not given in full), the IC50 amounted to 4.68 µM in test [1]; 6.42 µM in test [2]; 0.67 µM in test [3]; 5.33 µM in test [4]; 0.048 µM in test [5].

With `CCC(C(=O)N[C@@H](CC(=O)O)C(=O)CSCc1ccccc1)n1ccnc(NCc2cccs2)c1=O` (stereo not given in full), the IC50 in test [1] was 0.81 µM; in test [2], 2.09 µM; in test [3] it was 0.065 µM; in test [4], 4.56 µM; in test [5], 0.036 µM.

`CCC(C(=O)N[C@@H](CC(=O)O)C(=O)CSCc1ccccc1)n1ccnc(NCc2ccon2)c1=O` (stereo not given in full): the IC50 in test [1] was 5.17 µM; in test [2], 2.9 µM; in test [3] it was 0.4 µM; in test [4], 8.56 µM; in test [5], 0.046 µM.

Regarding `CCC(C(=O)N[C@@H](CC(=O)O)C(=O)CSCc1ccccc1)n1ccnc(NCC2COc3ccccc3O2)c1=O` (stereo not given in full), the half-maximal inhibitory concentration (IC50) in test [1] amounted to 3.28 µM; in test [2], 8.22 µM; in test [3] it was 0.087 µM; in test [4], 30 µM; in test [5], 0.14 µM.

Take `CCCCCCN(C)CNCC(=O)[C@H](CC(=O)O)NC(=O)C(CC)n1cc(CC)nc(NCc2nonc2C)c1=O` (stereo not given in full): the IC50 amounted to 0.6 µM in test [1]; 9.54 µM in test [2]; 0.025 µM in test [3]; 0.078 µM in test [4]; 0.006 µM in test [5].

In the case of `CCC(C(=O)N[C@@H](CC(=O)O)C(=O)CSCc1ccccc1)n1ccnc(NCc2nonc2C)c1=O` (stereo not given in full), the IC50 stood at 0.73 µM in test [1]; 2.46 µM in test [2]; 0.22 µM in test [3]; 1.39 µM in test [4]; 0.0079 µM in test [5].

`CCC(C(=O)N[C@@H](CC(=O)O)C(=O)CSCc1ccccc1)n1ccnc(NCCn2cccn2)c1=O` (stereo not given in full): the IC50 is more than 10 µM in test [1]; 2.26 µM in test [2]; 0.99 µM in test [3]; 7.09 µM in test [4]; 0.082 µM in test [5].
